The source of these data is ChEMBL document CHEMBL1147982, “Structure, inhibitor, and regulatory mechanism of Lyp, a lymphoid-specific tyrosine phosphatase implicated in autoimmune diseases” (Proc Natl Acad Sci U S A, 2007).

The target of test [1] is T1, Receptor-type tyrosine-protein phosphatase C (Homo sapiens, UniProt P08575).
T1 sequence (P08575 whole entry): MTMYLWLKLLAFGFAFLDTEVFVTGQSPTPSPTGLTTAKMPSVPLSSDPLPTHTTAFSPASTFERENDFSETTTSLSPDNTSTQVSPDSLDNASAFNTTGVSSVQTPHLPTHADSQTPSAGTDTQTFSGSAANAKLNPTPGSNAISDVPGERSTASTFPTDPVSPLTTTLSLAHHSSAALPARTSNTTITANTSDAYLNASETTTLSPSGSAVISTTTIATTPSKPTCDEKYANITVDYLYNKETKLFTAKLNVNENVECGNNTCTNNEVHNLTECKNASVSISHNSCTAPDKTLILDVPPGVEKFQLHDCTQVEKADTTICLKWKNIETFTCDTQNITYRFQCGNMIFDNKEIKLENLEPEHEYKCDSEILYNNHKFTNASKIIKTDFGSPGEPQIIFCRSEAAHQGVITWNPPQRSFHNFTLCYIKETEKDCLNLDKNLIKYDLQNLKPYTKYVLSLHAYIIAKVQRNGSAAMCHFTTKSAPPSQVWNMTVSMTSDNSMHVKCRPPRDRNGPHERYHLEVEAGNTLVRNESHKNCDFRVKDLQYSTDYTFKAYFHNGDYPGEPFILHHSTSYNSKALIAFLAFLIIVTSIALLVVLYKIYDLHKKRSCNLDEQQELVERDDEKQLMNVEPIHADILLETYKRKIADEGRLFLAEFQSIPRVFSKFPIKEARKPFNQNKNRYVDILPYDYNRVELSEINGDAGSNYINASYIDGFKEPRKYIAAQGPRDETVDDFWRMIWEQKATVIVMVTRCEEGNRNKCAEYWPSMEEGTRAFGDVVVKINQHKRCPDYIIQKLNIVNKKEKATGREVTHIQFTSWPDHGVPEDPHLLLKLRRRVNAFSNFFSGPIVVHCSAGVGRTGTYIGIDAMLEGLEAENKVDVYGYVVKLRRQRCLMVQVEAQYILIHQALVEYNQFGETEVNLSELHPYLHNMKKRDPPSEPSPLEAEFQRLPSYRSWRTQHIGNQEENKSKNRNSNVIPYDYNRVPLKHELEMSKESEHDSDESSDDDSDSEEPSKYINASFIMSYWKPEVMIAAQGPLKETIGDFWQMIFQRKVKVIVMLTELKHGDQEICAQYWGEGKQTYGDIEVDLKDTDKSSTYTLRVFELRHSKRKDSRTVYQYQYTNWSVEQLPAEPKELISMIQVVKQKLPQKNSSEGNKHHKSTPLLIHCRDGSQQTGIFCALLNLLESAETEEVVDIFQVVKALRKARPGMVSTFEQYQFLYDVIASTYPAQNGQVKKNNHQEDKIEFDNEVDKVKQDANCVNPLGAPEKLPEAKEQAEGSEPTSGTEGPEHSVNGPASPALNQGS
Kind of test: Inhibition of CD45.

In test [2] the target is T2, Tyrosine-protein phosphatase non-receptor type 9 (Homo sapiens, UniProt P43378).
T2 sequence (P43378 whole entry): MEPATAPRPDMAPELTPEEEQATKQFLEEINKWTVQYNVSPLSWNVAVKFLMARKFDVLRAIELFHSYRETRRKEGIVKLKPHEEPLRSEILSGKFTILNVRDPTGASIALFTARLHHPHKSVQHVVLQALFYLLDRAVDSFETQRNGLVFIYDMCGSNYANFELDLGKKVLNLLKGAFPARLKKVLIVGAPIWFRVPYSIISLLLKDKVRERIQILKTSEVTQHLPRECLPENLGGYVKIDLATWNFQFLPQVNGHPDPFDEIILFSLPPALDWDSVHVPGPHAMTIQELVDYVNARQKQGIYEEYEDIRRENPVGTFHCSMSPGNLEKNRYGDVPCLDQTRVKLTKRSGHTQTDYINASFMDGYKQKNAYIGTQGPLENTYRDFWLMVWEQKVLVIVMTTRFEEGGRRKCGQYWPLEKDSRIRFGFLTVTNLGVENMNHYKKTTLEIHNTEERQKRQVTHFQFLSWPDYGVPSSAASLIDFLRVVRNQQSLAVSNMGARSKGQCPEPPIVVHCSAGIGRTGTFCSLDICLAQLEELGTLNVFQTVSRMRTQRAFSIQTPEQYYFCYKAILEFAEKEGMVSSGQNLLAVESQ
As to the kind of experiment: Inhibition of PTP-Meg2.

Test [3] deals with T3, Tyrosine-protein phosphatase non-receptor type 11 (Homo sapiens, UniProt Q06124).
T3 sequence (Q06124 whole entry): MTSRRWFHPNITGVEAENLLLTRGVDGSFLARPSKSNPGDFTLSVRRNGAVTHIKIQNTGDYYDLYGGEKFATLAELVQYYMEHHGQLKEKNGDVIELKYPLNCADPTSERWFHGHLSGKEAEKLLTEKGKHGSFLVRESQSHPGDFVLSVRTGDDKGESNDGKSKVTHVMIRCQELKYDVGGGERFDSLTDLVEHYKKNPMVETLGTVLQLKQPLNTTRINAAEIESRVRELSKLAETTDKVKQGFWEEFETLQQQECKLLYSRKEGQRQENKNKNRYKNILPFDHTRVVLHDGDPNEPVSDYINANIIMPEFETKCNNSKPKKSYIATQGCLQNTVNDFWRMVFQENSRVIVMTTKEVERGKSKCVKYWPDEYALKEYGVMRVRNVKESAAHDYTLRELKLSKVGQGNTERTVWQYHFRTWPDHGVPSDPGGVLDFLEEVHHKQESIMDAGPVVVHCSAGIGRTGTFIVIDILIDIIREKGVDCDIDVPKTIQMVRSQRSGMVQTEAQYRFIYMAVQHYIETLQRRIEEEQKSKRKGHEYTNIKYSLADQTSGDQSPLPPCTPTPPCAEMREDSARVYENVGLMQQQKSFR
Kind of test: Inhibition of SHP2.

Test [4] concerns the target T4, Tyrosine-protein phosphatase non-receptor type 7 (Homo sapiens, UniProt P35236).
T4 sequence (P35236 whole entry): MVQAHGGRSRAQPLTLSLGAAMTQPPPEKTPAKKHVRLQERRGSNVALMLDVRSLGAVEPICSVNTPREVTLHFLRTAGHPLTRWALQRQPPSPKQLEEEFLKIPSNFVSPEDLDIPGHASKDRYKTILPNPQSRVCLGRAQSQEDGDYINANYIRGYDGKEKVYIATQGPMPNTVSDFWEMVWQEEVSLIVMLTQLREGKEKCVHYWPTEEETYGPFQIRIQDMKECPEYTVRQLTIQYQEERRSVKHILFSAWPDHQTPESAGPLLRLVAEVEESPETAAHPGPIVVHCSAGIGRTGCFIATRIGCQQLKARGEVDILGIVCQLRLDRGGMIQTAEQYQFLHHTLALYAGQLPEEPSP
Kind of test: Inhibition of HePTP.

For test [5], the target named is Receptor-type tyrosine-protein phosphatase alpha (Homo sapiens) (UniProt P18433). Kind of test: Inhibition of PTPalpha at 100 uM.
For test [6], the target named is Dual specificity protein phosphatase 3 (Homo sapiens, UniProt P51452). As to the kind of experiment: Inhibition of VHR.
Sequence of Dual specificity protein phosphatase 3 (P51452 whole entry): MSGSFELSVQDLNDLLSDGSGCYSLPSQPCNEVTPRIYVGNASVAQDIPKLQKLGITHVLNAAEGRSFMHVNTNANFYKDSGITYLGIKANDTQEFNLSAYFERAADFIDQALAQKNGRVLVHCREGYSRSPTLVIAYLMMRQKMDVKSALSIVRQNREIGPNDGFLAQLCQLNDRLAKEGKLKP
In test [7] the target is Receptor-type tyrosine-protein phosphatase F (Homo sapiens) (UniProt P10586). As to the kind of experiment: Inhibition of LAR at 100 uM.
Sequence of Receptor-type tyrosine-protein phosphatase F (Homo sapiens) (P10586 whole entry): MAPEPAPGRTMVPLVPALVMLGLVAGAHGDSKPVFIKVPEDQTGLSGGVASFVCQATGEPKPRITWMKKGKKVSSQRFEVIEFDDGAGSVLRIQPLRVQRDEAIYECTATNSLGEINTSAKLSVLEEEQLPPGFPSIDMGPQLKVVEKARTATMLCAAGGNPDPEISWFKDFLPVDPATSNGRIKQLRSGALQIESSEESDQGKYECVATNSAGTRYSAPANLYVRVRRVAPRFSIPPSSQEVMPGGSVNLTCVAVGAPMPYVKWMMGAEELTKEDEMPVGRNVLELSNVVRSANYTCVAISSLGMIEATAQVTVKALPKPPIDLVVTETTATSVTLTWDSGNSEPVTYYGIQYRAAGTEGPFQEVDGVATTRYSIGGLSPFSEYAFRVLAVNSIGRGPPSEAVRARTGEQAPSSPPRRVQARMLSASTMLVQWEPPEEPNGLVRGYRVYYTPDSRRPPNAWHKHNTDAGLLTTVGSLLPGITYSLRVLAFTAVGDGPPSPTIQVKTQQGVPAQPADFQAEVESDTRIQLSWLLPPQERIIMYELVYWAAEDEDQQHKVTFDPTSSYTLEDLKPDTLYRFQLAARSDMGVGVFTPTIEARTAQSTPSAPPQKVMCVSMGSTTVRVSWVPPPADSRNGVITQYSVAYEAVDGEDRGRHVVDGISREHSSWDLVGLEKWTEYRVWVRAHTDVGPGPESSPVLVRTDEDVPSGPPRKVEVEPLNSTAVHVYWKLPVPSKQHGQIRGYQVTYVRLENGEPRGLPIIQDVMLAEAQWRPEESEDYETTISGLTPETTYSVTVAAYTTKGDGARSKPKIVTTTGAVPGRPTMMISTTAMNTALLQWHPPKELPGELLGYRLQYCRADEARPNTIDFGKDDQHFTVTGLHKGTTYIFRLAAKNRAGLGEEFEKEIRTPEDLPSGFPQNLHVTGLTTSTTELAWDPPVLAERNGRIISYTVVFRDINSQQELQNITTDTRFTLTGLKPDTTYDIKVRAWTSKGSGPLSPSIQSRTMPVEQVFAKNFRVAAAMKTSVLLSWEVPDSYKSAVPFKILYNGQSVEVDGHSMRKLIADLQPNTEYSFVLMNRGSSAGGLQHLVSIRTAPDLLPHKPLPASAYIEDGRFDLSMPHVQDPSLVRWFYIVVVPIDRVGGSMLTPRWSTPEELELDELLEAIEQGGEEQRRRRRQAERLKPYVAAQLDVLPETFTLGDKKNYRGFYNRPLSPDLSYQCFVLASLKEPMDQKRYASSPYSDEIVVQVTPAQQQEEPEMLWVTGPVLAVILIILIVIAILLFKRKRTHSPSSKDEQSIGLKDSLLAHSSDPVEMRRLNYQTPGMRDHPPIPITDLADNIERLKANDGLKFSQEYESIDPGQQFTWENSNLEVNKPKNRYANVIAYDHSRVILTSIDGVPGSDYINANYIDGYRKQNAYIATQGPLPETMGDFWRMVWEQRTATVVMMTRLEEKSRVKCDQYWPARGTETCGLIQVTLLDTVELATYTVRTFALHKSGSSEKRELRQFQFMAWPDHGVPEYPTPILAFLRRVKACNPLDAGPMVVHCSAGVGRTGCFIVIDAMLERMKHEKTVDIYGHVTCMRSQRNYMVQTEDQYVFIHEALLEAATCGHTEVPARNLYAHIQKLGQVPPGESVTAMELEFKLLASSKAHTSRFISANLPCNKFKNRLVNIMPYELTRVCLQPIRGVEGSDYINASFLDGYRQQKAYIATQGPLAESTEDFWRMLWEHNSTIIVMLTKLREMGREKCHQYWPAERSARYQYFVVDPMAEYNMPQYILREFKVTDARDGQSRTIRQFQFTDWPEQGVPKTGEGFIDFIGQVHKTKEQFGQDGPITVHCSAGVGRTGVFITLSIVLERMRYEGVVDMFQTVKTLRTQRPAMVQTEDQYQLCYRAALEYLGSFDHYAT
Test [8] concerns the target Tyrosine-protein phosphatase non-receptor type 13 (Homo sapiens, UniProt Q12923). Kind of test: Inhibition of FAP1.
Test [9] addresses T5, Tyrosine-protein phosphatase non-receptor type 1 (Homo sapiens, UniProt P18031).
T5 sequence (P18031 whole entry): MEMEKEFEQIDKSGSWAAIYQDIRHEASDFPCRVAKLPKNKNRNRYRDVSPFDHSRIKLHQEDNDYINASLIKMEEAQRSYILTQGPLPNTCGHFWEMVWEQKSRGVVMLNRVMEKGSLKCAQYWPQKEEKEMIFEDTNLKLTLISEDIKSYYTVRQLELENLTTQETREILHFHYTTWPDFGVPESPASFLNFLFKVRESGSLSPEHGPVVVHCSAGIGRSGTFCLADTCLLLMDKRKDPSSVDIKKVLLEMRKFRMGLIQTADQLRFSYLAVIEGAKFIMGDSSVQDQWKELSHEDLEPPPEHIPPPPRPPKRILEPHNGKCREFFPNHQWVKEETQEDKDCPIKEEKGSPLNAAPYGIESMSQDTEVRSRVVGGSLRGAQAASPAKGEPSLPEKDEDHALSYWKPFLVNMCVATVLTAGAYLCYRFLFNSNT
Kind of test: Inhibition of PTP1B.

The nature of test [10]: Inhibition of lymphoid-specific tyrosine phosphatase pLyp35 mutant.

SMILES strings stand for the structures. Activity calls are given as the source filed them. No cut-off for these calls is given here.

Sequence of Tyrosine-protein phosphatase non-receptor type 13 (Q12923 whole entry): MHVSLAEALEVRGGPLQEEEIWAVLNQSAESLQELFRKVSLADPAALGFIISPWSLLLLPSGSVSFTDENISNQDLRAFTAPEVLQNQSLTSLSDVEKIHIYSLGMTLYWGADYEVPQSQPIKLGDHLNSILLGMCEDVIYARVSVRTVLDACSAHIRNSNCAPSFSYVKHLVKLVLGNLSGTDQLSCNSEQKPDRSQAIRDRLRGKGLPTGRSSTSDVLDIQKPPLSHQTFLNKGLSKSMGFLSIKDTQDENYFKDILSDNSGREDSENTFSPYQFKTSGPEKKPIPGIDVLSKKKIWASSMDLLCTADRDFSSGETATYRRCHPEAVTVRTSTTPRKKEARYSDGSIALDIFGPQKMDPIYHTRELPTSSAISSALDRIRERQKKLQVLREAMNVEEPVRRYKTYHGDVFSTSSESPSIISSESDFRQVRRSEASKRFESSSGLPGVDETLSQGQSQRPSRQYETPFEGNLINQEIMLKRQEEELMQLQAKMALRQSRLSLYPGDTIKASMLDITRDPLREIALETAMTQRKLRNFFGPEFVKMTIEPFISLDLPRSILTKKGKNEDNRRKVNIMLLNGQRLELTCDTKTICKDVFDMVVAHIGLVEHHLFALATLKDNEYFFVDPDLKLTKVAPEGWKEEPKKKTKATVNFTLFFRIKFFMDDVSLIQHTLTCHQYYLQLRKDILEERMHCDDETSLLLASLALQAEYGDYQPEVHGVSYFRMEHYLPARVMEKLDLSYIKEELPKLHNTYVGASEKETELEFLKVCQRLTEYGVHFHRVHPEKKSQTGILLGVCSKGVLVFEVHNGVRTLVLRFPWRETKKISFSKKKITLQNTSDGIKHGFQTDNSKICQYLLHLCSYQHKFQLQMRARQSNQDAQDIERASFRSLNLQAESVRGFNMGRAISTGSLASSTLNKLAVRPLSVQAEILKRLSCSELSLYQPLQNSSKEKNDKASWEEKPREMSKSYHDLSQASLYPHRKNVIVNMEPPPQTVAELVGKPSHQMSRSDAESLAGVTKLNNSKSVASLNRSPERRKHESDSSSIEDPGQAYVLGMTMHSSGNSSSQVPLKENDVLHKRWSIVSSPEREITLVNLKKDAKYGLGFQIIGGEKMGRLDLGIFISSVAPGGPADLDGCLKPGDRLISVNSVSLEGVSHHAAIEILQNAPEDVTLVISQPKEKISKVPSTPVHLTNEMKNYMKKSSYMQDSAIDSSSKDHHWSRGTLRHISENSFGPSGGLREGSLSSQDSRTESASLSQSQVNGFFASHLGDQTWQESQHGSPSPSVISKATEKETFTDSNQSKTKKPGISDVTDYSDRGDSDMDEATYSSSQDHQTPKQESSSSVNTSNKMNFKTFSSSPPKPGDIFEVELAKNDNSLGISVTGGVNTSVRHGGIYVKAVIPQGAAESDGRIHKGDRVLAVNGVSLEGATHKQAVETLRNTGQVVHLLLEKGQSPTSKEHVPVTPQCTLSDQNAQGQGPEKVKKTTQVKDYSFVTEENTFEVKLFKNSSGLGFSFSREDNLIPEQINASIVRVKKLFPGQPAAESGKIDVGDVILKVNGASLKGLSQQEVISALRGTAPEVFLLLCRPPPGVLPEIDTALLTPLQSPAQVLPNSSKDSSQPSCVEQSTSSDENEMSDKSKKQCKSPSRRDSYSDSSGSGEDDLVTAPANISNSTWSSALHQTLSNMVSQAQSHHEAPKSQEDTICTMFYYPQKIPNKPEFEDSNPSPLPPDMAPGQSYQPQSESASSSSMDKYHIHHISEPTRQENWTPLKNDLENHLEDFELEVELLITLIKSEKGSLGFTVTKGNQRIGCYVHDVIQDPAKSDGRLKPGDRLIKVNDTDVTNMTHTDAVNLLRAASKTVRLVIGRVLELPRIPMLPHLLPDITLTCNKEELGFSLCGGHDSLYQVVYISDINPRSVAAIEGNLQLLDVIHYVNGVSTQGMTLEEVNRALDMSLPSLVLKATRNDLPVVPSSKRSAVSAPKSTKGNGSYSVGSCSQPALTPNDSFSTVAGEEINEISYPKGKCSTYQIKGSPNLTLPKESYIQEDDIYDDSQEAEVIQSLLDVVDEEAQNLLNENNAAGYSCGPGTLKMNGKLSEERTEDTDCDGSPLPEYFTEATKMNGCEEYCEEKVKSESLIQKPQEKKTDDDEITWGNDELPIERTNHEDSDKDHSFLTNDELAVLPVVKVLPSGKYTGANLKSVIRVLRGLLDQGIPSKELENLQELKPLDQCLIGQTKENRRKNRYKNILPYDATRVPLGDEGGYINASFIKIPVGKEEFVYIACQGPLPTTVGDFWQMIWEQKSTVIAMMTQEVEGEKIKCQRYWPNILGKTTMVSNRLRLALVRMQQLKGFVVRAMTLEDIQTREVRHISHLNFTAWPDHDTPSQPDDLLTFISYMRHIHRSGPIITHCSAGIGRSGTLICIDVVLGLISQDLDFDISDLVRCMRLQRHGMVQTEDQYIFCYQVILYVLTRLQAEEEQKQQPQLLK

Turning to `O=C(CCCn1cc(-c2c(-c3ccccc3)oc3cc(O)c(C(=O)O)cc23)nn1)Nc1cccc2ccccc12`, the IC50 in test [1] amounted to 186 µM; in test [2], 31.8 µM; in test [3] it was 36 µM; in test [4], 32.1 µM; in [6], 103 µM; in test [8] it was 36.8 µM. The IC50 was 11.8 µM in test [9] and 48 µM in test [10]. The result in test [5] and in test [7] was inactive.
